Source: patent publication US9416103B2, “Use of the aminoalkylindole JWH-073-M4 and related compounds as neutral CB1 receptor antagonists for the treatment of alcoholism, drug abuse, obesity, and obesity-related diseases” (The Board of Trustees of the University of Arkansas, priority 2012, dated 2016)
Values joined by “and” are separate entries in the source; they are usually repeats but may differ in a detail not shown here. Equal values may be shown once. Read-outs that look alike come from different tables or passages of the source. Marks after values point to notes of the source that are not given here.

Experiments:
CB1Rs = CB1Rs (Mus musculus (Mouse), UniProt P47746); assay: [35S]GTPγS binding assay (G-protein activation) in mouse brain homogenates; type: biochemical
Experimental: Mouse brain homogenates for in vitro assays were prepared as previously described. Briefly, whole brains were harvested from B6SJL mice, snap-frozen in liquid nitrogen and stored at −80° C. On the day membrane homogenates were to be prepared, brains were thawed on ice, then pooled in a 40 mL Dounce glass homogenizer and suspended in 5 volumes of ice cold homogenization buffer (50 mM HEPES, pH 7.4, 3 mM MgCl2, and 1 mM EGTA). Brains were then subjected to 10 complete strokes with an A pestle, followed by centrifugation at 40,000×g for 10 minutes at +4° C. Resulting supernatants were discarded, and the pellet was resuspended, homogenized and centrifuged similarly twice more, with supernatants being discarded. For the final resuspension and homogenization with a B pestle, ice-cold 50 mM HEPES was used in place of homogenization buffer, and homogenates were aliquoted and stored at −80° C. Protein concentrations of homogenates were determined using the BCA™ Protein Assay (Thermo Scientific, Rockford, Ill.).
[^35S]GTPγS binding was performed as previously described. Briefly, 25 μg of mouse brain homogenates were incubated for 30 minutes at 30° C. with 0.1 nM [^35S]GTPγS, 10 μM GDP, and either cannabinoid+/−antagonist, 10 μM unlabeled GTPγS (non-specific binding) or vehicle (total binding), in triplicate, in a volume of 1 mL of buffer containing 20 mM HEPES, 10 mM MgCl2, 100 mM NaCl, 20 units/L adenosine deaminase, 0.05% BSA and the appropriate DMSO (0.1%) and/or ethanol (<0.2%) vehicle. Assay buffer containing 100 mM KCl, instead of 100 mM NaCl, was used to increase basal G-protein activity in experiments examining inverse agonism. Reactions were terminated by quick vacuum filtration through Whatman GF/B glass fiber filters, followed by five washes with ice-cold buffer (20 mM HEPES, 0.05% BSA). Filters were immediately placed into 7 mL scintillation vials to which 4 mL of ScintiVerse™ BD Cocktail scintillation fluid was added. Bound radioactivity was determined after overnight incubation at room temperature and shaking by liquid scintillation spectrophotometry with an efficiency of 93% (Tri Carb 2100 TR Liquid Scintillation Analyzer, Packard Instrument Company, Meriden, Conn.). Specific binding is expressed as picomoles of [^35S]GTPγS bound per mg of protein.
Curve fitting and statistical analyses for in vitro experiments were performed using GraphPad Prism™ version 5.0b (GraphPad Software Inc., San Diego, Calif.). The Cheng-Prusoff equation [45] was used to convert the experimental IC50 values obtained from competition receptor binding experiments to Ki values, a quantitative measure of receptor affinity. Non-linear regression for one-site competition was used to determine the IC50 for competition receptor binding. Curve fitting of concentration-effect curves via non-linear regression was also employed to determine the EC50 (a measure of potency) and Emax (a measure of efficacy) for [^35S]GTPγS concentration-effects experiments. […] Data are expressed as mean±SEM. The Student's t-test was used to determine statistical significance (P<0.05) between two groups, while a one-way ANOVA, followed by Tukey's Multiple Comparison post-hoc test, was used to determine statistical significance (P<0.05) between three or more groups.

hCB2Rs [1] = molecular target: T1, hCB2Rs (Homo sapiens (Human), UniProt P34972); assay: Competition receptor binding with [3H]CP-55,940 in CHO-hCB2 cell homogenates
Experimental: Competition receptor binding was performed as previously described. […] Reactions were terminated by rapid vacuum filtration through Whatman GF/B glass fiber filters, followed by five washes with ice-cold buffer (50 mM Tris, 0.05% BSA). Filters were immediately placed into 7 mL scintillation vials to which 4 mL of ScintiVerse™ BD Cocktail scintillation fluid (Fisher Scientific, Fair Lawn, N.J.) was added. Bound radioactivity was determined after overnight incubation at room temperature and shaking, by liquid scintillation spectrophotometry with an efficiency of 44% (Tri Carb 2100 TR Liquid Scintillation Analyzer, Packard Instrument Company, Meriden, Conn.). Specific binding is expressed as total binding minus non-specific binding, and is graphed for each data point as a percentage of specific binding occurring in the absence of any competitor.
The prepared analogues were subjected to in vitro pharmacological testing, which included receptor binding and functional assays at both cannabinoid receptors. Initial receptor binding screens at both CB1Rs and CB2Rs were conducted for the analogues prepared.

NIH Swiss mice [2] = assay: Locomotor activity by biotelemetry (cannabinoid tetrad); type: in vivo, mouse; conditions: M4 10 mg/kg i.p. + JWH-018 3 mg/kg i.p.
NIH Swiss mice [3] = assay: Analgesia, tail-flick latency; type: in vivo, mouse; conditions: M4 10 mg/kg i.p. + JWH-018 3 mg/kg i.p.
hCB2Rs [4] = molecular target: T1, hCB2Rs; assay: Inhibition of forskolin-stimulated cAMP production (adenylyl cyclase) in intact CHO-hCB2R cells; type: cell-based
Experimental: Adenylyl cyclases are a family of membrane-bound enzymes that catalyze the intracellular production of the second messenger cAMP from ATP. Adenylyl cyclase activity is modulated by activated G-proteins: Gs-proteins stimulate activity, while Gi/o-proteins are inhibitory. Thus, agonists of G-protein coupled receptors (GPCRs) coupled to Gi/o-proteins, such as hCB2Rs, decrease cAMP production due to inhibition of adenylyl cyclase activity. In this assay, intact CHO-hCB2R cells are preincubated with [^3H]-adenine and treated with forskolin (10 or 30 μM) to stimulate adenylyl cyclase activity.
A functional assay screen for the inhibition of adenylate cyclase (AC) activity was chosen as the subsequent assay. […] Reaching full-receptor occupancy, which is predicted to produce maximal efficacy, is desirable at 10 μM concentration of all the compounds was used.

[5] = molecular target: CB1Rs endogenously expressed in Neuro2A cells (Mus musculus (Mouse), UniProt P47746); assay: Adenylyl cyclase (AC) inhibition via CB1Rs endogenously expressed in Neuro2A cells; type: cell-based
[6] = system: mice trained to discriminate THC; assay: THC drug discrimination (generalization of JWH-018 to THC); type: in vivo, mouse; conditions: M4 10 mg/kg i.p. + JWH-018 1 mg/kg; training dose THC 10 mg/kg i.p.
mice = assay: Thermoregulation assay, antagonism of JWH-073-induced hypothermia; type: in vivo, mouse; conditions: 10 mg/kg
Description: Our hypothesis is that a dual activity CB1R antagonist/CB2R agonist will reduce the reinforcing effects of EtOH as well as reduce the conditioned rewarding effects of ethanol in mice. The compounds selected will firstly be put through a thermoregulation assay as a screen for potential cannabinoid receptor activity. Thermoregulation will be used as a screen because of the well-established hypothermic effects seen with the use of cannabinoid ligands. This assay was done using glass radiotelemetry probes that were surgically implanted in each mouse, which monitor core temperature in response to drug administration. […] This screen does indeed confirm the in vivo cannabinoid activity of TV-5-249 and TV-6-41 and it also illustrates the evident antagonist effects against agonist induced hypothermia.

[7] = CHO-hCB2 homogenates (100 μg), read-out: affinity (Ki) at hCB2Rs

## CCCCn1cc(C(=O)c2cccc3ccccc23)c2cccc(O)c21 [Compound M4]
CB1Rs; 0.1 nM to 10 μM
  effect on basal [35S]GTPγS binding levels when tested alone: neither significantly increased (characteristic of agonists), nor decreased
CB1Rs; EC90 concentration of CP-55,940 (100 nM), from IC50 by modified Cheng-Prusoff, read-out: Kb, antagonism of CP-55,940-induced [35S]GTPγS binding
  Kb: 40.3 nM
CB1Rs; M4 10 μM co-incubated with CP-55,940, JWH-018, JWH-073, Rimonabant or AM251
  antagonism of CB1R agonists and inverse agonists on [35S]GTPγS binding: significantly antagonized the action of agonists
CB1Rs; M4 1, 3, 10 μM shifting JWH-018 curve, read-out: Kb, Schild analysis against JWH-018
  Kb: ~40 nM and 48.1 nM and 48 nM
CB1Rs; against JWH-018
  Schild plot slope: 0.97
hCB2Rs [1]; CHO-hCB2 homogenates (100 μg), listed as JWH-073-M4, read-out: affinity (Ki) at hCB2Rs
  Ki: ~250 nM
hCB2Rs [1]; [7]
  Ki: 251 ± 91.1 nM
hCB2Rs [1]; Table 3, read-out: hCB2R Ki
  Ki: 78.3 ± 36.2 nM
NIH Swiss mice [2]
  antagonism of JWH-018-induced locomotor suppression: no difference
NIH Swiss mice [3]
  antagonism of JWH-018-induced analgesia: no difference
hCB2Rs [4]; 10 μM forskolin, n=1
  inhibition of cAMP production relative to vehicle, concentration effect curve: 81%
hCB2Rs [4]; 10 μM, 30 μM forskolin
  inhibition of intracellular cAMP production, single concentration: 48%
hCB2Rs [4]; CHO-hCB2R cells
  potency (IC50) of inhibition of intracellular cAMP production: nanomolar potency
[5]; M4 1 μM
  inhibition of adenylyl cyclase activity, reversed by O-2050 (1 μM): inhibited activity of the downstream intracellular effector adenylyl cyclase
[5]; Neuro2A cells
  IC50: 225 nM
  inhibition of AC-activity via CB1Rs, concentration-effect: 50-60%
[6]
  antagonism of generalization of JWH-018 to THC (THC-appropriate responding): No change in THC-appropriate responding

## CCCCn1cc(C(=O)c2cccc3ccccc23)c2ccccc21 [JWH-073, (1-butyl-1H-indole-3-yl)-1-naphthalenyl-methanone]
CB1Rs; 1 μM
  [35S]GTPγS Binding, 1 μM: 0.27 ± 0.04 pmol/mg
CB1Rs; 1 μM cannabinoid (100 nM for CP-55,940) co-incubated with CB1R antagonist O-2050 1 μM
  [35S]GTPγS Binding, +O-2050 (1 μM): 0.07 ± 0.02 pmol/mg
CB1Rs; concentration-effect, mouse brain homogenates
  [35S]GTPγS Binding Emax: 0.27 ± 0.01^a pmole/mg
CB1Rs; concentration-effect, mouse brain homogenates, read-out: [35S]GTPγS Binding EC50
  EC50: 276 ± 65.3 nM
CB1Rs; receptor-saturating concentration 10 μM
  [35S]GTPγS Binding, 10 μM: 0.28±0.03 pmole/mg and 0.28 ± 0.03^c pmole/mg
hCB2Rs [1]; [7]
  Ki: 9.84 ± 0.92 nM
hCB2Rs [1]; Table 3, read-out: hCB2R Ki
  Ki: 9.8 ± 0.9 nM
mice
  hypothermic effect: profound hypothermic effect
